The source of these data is patent EP2451450B1, “Inhibitors of proline racemase enzymes for the treatment of Trypanosoma spp infections” (Institut Pasteur, priority 2009, dated 2011).

Molecules are shown by their SMILES. Read-outs that look alike come from different tables or passages of the source.

Assay [1] deals with T.cruzi CL Brener (clone F11-F5). The settings on record: cited from earlier work; for Mean number of parasites/ cell / % Infected cells / Endocytic index: from previous work; for Endocytic index (EI): Table 5, same PYC data as Table 3A.
The subject of a further assay is T. cruzi. Kind of assay: Capture ELISA of Vero cultures infected 17h with or without inhibitor. The assay is classed as cell-based, Trypanosoma cruzi. The settings on record: 17h at 37°C, 10:1 parasite/cell ratio; 0-30 mM OxoPA, Br-OxoPA or 10-1000 µM PYC in DMSO; Fig. 9. How it is done: Flat-bottomed microtiter plates (Nunc, Denmark) were coated overnight at 4°C with rabbit anti-T. cruzi polyclonal antibodies and further blocked for 4 h at room temperature (RT) with 1% BSA, 0.05% Tween 20 in PBS. After washings, lysate samples from infected or control Vero cultures, or from T. cruzi, were then added and incubated at 4°C for 18h. Plates were washed with PBS-Tween and incubated for 2h at RT with polyclonal mouse anti-T. cruzi chronic serum, washed again and incubated for 1 h at RT with HRP-secondary antibodies. […] Optical densities were determined in a spectrophotometer at 450 nm and 650 nm and analyzed using Softmax Pro software.
To confirm the effect of the inhibitors in the initial steps of the host-parasite interaction, cultures were infected for 17h at 37°C at a 10:1 parasite/cell ratio with or without increasing doses of freshly prepared dilutions (0-30 mM) of OxoPA, Br-OxoPA (15), or (10-1000 µM) of PYC, previously dissolved in DMSO and further analyzed by capture ELISA (see methods and Fig. 9). […] Three ongoing studies were performed to determine whether TcPRAC inhibition by the new compounds affects parasite intracellular fate. To do this, host cells were infected for 17 hours then washed and different ligand concentrations (5 mM, 10 mM, 30, 100 mM) were added to the medium. The degree of infection was determined over 48 hours by capture ELISA. The number of parasites per well decreased in a dose-dependent manner (Fig. 7). These experiments indicate that TcPRAC inhibition by OxoPA and Br-OxoPA affects both cellular infection by T. cruzi and parasite development in tissues.

Assay [2] concerns the target T1, TcPRAC (Trypanosoma cruzi, UniProt Q4DA80).
T1 construct: implied only by nickel IMAC purification; made in house; host or cells: E. coli BL21 (DE3)
The settings on record: cited from earlier work.

Assay [3] has as its target T1, TcPRAC. Nature of the assay: L-proline racemization assay by polarimetry. The format is biochemical. Particulars: ligand 10.0 µM; L-Proline 20 mM, 30 minutes 37°C, 0.25 µM TcPRAC. The method, then:
(§1) Briefly, classical assays of Proline racemization induced by TcPRAC were performed in tubes in a final volume of 1.5 ml and optical rotations measured in a polarimeter 241MC (Perkin Elmer). Parallel assays of Proline racemization were transposed into microplates in a final volume of 100 µl, as follows: serial dilutions of L- Proline ranging from 40 mM to 2.5 mM were prepared in 0.2 M sodium acetate pH 6.0 containing 0.25 mM rTcPRAC and loaded into microplate wells in the presence or in the absence of 0 - 20 µM pyrrole-2 carboxylic acid (PYC) or of similar dilutions of unknown potential inhibitors. Specific control wells were included omitting the TcPRAC and/or the PYC.
The values presented in Table 2B correspond to racemization reactions performed in the absence or in the presence of the different inhibitors. Note that 6 µM PYC is necessary to inhibit 100 % of the racemization of 10-20 mM L-proline. Briefly, L-Proline (20 mM) were incubated for 30 minutes at 37°C in test tubes with or without 0.25 µM TcPRAC in 0.2 M sodium acetate pH 6. Reactions were stopped by heating at 65° C for 10 minutes. Reaction volumes were analyzed for D-Proline formation, by measuring optical rotations in a polarimeter (365nm).

Assay [4] has as its target T1, TcPRAC. Nature of the assay: L-proline racemization assay, formed D-proline determined by DAAOx test. The assay is classed as biochemical. The method, then: as §1
Microplates were incubated for 30 minutes at 37° C. Enzyme activity was then inactivated by heating the plate for 15 seconds in a microwave oven at 900 watts after shifting the pH of wells to 8.3 by addition of 6.8 µl of 0.235 M sodium Pyrophosphate. 50 µl of each well were used to test the presence of D-Proline using the DAAOx (D-amino acid oxidase) test described below. L- amino acids may react at very low rate with DAAOx. For instance, DAAOx reacts with L-Proline 300 times slower than D-Proline. Consequently, when assessing amino acid racemization products, standards should consist of serial dilution of equimolar mixtures of specific D- and L-amino acids ranging from 0 to 20 mM (10 mM final) to take into account any interference of possible reactivity with DAAOx of the L- form of amino acids present in the samples.
Solution A consisting of 0.2 M sodium acetate/0.016 M sodium pyrophosphate (Pop) buffer, pH 8.3 was used to prepare the enzyme stock solutions conserved in 50% glycerol, namely: 50 U/ml D-amino acid oxidase from pig kidney (DAAOx, Sigma) and 5000 U/ml Horse Raddish Peroxydase (HRP, Sigma). Stock solutions of L- proline (1M), D- proline (1M) and Pyrrole-2-carboxylic acid (10 mM) (PYC, Sigma) are also prepared in solution A. 10^-1 M FAD (Sigma) stock was prepared in water. Solution B consists in adding to solution A the following reagents at a final concentration in the assay of 1 U/ml for DAAOx, 0.5 mg/ml orthophenylenediamine (OPD, Sigma), 37.5 U/ml HRP and FAD (1.5x10^-5 M FAD). The test is run in 96 wells micro plates (Nunc, Denmark). […] OD 490nm - 650nm is obtained with a microtiter plate reader (Molecular Devices), and compared to those obtained with blank control wells.
The values presented in Table 2A correspond to racemization reactions performed in the absence or in the presence of 10 µM concentration of the different ligands. […] Briefly, 22.4 mg/ml of active TcPRAC was used in the racemization assays of 10 mM L-proline substrate and the concentration of formed D-proline was determined by the DAAOx test, as described in the Material and Methods. […]

The target in another assay is CsPRAC. The settings on record: value given for comparison; cited from earlier work.
The next assay deals with recombinant TvPRAC. Particulars: 5 µM PYC, 20-160 mM L-proline; Chamond et al 2009; cited from earlier work.
The target in assay [5] is T1, TcPRAC. The assay is classed as biochemical. The settings on record: in words; for inhibition of TcPRAC activity: Table 1.
Experimental: Optimum Proline racemization conditions for TcPRAC were determined using 10-20 mM L-Proline in 0.2 M NaOAc, as a function of pH, as described [24].
Briefly, classical assays of Proline racemization induced by TcPRAC were performed in tubes in a final volume of 1.5 ml and optical rotations measured in a polarimeter 241MC (Perkin Elmer). […] Specific control wells were included omitting the TcPRAC and/or the PYC.
Microplates were incubated for 30 minutes at 37° C. Enzyme activity was then inactivated by heating the plate for 15 seconds in a microwave oven at 900 watts after shifting the pH of wells to 8.3 by addition of 6.8 µl of 0.235 M sodium Pyrophosphate. 50 µl of each well were used to test the presence of D-Proline using the DAAOx (D-amino acid oxidase) test described below [25]. L- amino acids may react at very low rate with DAAOx. For instance, DAAOx reacts with L-Proline 300 times slower than D-Proline. Consequently, when assessing amino acid racemization products, standards should consist of serial dilution of equimolar mixtures of specific D- and L-amino acids ranging from 0 to 20 mM (10 mM final) to take into account any interference of possible reactivity with DAAOx of the L- form of amino acids present in the samples.
Solution A consisting of 0.2 M sodium acetate/0.016 M sodium pyrophosphate (Pop) buffer, pH 8.3 was used to prepare the enzyme stock solutions conserved in 50% glycerol, namely: 50 U/ml D-amino acid oxidase from pig kidney (DAAOx, Sigma) and 5000 U/ml Horse Raddish Peroxydase (HRP, Sigma). Stock solutions of L- proline (1M), D- proline (1M) and Pyrrole-2-carboxylic acid (10 mM) (PYC, Sigma) are also prepared in solution A. 10^-1 M FAD (Sigma) stock was prepared in water. Solution B consists in adding to solution A the following reagents at a final concentration in the assay of 1 U/ml for DAAOx, 0.5 mg/ml orthophenylenediamine (OPD, Sigma), 37.5 U/ml HRP and FAD (1.5x10^-5 M FAD). […] OD 490nm - 650nm is obtained with a microtiter plate reader (Molecular Devices), and compared to those obtained with blank control wells. […]

T1 sequence (Q4DA80 32-423): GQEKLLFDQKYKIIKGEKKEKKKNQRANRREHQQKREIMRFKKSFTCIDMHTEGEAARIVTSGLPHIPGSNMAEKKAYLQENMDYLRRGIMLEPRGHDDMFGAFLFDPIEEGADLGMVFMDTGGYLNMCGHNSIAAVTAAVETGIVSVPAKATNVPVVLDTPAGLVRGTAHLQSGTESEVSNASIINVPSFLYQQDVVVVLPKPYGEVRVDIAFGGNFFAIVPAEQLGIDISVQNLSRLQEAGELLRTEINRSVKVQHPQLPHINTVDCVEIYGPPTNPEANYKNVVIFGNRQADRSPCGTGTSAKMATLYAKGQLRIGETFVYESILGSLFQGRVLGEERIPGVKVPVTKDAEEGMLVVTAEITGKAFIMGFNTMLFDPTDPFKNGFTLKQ

As to `O=C(O)c1ccc[nH]1` [PYC, pyrrole-2-carboxylic acid], the “Mean number of parasites/ cell” value in assay [1] (10 µM, 2 at 0) was 1,7; in assay [1] (100 µM) it was 1,5; in assay [1] (1000 µM), 1,0. For the same compound, the “% Infected cells” value in assay [1] (10 µM, 90,0 at 0) is recorded as 75,0%; in assay [1] (100 µM) it was 45,0%; in assay [1] (1000 µM), 25,0%. The Endocytic index in assay [1] (10 µM) is reported as 44; in assay [1] (100 µM), 30; in assay [1] (1000 µM), 25. For the same compound, the “Endocytic index (EI)” value in assay [1] (Inhibitor concentration 10) was 44; in assay [1] (Inhibitor concentration 100) it was 30; in assay [1] (Inhibitor concentration 1000), 25. The “inhibition of cellular infection” value with T. cruzi was “no particular differences were observed”. In addition, the “PYC necessary to inhibit 100 % of the racemization of 10-20 mM L-proline” value on TcPRAC [2] (reference [15]) is recorded as 6 µM. Further, on TcPRAC [2] (reference [15]), the “affinity for the TcPRAC catalytic pocket” value is 6 µM. Further, the Ki at TcPRAC [2] (value given for comparison) is 6.7 µM; at CsPRAC, 18 µM; on recombinant TvPRAC it was 20 µM. Besides, at TcPRAC [3], the “Racemization Inhibition” value came to 56.9%. Further, on TcPRAC [4], the IC50 was approximately 10 µM. For the same compound, the “Formed D-Proline” value at TcPRAC [4] (ligand 10 µM, 10 mM L-proline, 22.4 mg/ml TcPRAC, 5.0mM without ligand) was 2.4 mM (IC50).
Turning to `O=C(O)c1cc[nH]n1` [Pyrazole 5-carboxylic, 1H-pyrazole-3-carboxylic acid], on TcPRAC [5], the “activity with PRAC (Figure 1 compounds)” value is reported as “very weakly active”.
Regarding `O=C(O)c1n[nH]cc1Cl` [Pyrazole 4-chloro 5-carboxylic, 4-chloro-1H-pyrazole-3-carboxylic acid], on TcPRAC [5], the “inhibition of TcPRAC activity” value is recorded as “weak inhibitions”.
On to `O=C(O)c1n[nH]cc1Br` [Pyrazole 4-bromo 5-carboxylic, 4-bromo-1H-pyrazole-3-carboxylic acid], for which the “inhibition of TcPRAC activity” value against TcPRAC [5] is “weak inhibitions”.
